These are literature values, as cited in patent publication US20230083525A1, “NOVEL COMPOSITION FOR REDUCING STRESS DISORDERS” (SOCIETE DES PRODUITS NESTLE S.A., priority 2019, published 2023).

The conditions of the data set: value used to convert plasma AUC to production in the colon.

Consider `CC(=O)O` [acetate], for which the systemic availability is recorded as 36%.
Take `CCCC(=O)O` [butyrate]: the systemic availability is listed as 2%.
